The source of these data is ChEMBL document CHEMBL3217656, “Identification of a potent salicylic acid-based inhibitor of tyrosine phosphatase PTP1B” (Medchemcomm, 2013).

The source made the active and inactive calls. No cut-off for these calls is given here. Where only a bound is given, the exact number is not on record here.

Series [1] has as its target T1, Tyrosine-protein phosphatase non-receptor type 2 (Homo sapiens, UniProt P17706).
T1 sequence (P17706 whole entry): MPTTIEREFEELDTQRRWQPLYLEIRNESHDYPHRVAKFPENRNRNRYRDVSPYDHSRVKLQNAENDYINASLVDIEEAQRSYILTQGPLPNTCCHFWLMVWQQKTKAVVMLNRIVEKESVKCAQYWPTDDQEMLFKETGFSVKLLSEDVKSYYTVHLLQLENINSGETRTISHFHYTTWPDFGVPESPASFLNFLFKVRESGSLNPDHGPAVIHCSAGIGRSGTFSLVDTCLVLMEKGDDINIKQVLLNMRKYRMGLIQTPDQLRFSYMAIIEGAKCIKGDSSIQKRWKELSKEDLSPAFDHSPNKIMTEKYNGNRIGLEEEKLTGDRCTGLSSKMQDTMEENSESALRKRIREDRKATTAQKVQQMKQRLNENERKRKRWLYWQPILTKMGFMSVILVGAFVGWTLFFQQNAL
As to the kind of experiment: Inhibition of TC-PTP (unknown origin) expressed in Escherichia coli cells assessed as p-nitrophenyl phosphate hydrolysis by spectrophotometric analysis.

Series [2] concerns the target T2, Tyrosine-protein phosphatase non-receptor type 1 (Homo sapiens, UniProt P18031).
T2 sequence (P18031 whole entry): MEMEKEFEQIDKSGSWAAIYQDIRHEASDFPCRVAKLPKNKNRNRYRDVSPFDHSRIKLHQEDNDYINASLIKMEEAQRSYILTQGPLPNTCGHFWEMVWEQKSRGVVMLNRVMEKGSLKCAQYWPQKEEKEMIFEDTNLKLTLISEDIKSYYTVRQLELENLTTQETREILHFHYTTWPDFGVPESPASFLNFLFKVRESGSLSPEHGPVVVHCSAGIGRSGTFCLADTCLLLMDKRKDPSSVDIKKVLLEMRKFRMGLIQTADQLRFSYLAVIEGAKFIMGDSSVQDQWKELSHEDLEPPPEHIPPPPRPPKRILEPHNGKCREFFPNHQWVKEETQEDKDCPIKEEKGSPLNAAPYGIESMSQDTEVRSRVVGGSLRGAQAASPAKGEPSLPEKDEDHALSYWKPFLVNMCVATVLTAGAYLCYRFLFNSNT
As to the kind of experiment: Inhibition of PTP1B (unknown origin) expressed in Escherichia coli cells assessed as p-nitrophenyl phosphate hydrolysis by spectrophotometric analysis.

The test system of series [3] is CHO. As to the kind of experiment: Cytotoxicity against Chinese hamster CHO cells overexpressing IR assessed as slight reduction in cell viability at >50 uM by xCELLigence system. It is filed as cell-based, Cricetulus griseus.
Series [4] concerns CHO. As to the kind of experiment: Inhibition of PTP1B in Chinese hamster CHO cells overexpressing IR assessed as insulin-stimulated IR phosphorylation treated for 3 hrs prior to insulin stimulation for 15 mins by western blot analysis. Conditions: Cricetulus griseus. It is filed as cell-based. On the technique in general: Immunoblotting shows a protein as a band on a membrane.

Series [5] concerns the target T2, Tyrosine-protein phosphatase non-receptor type 1. As to the kind of experiment: Competitive inhibition of human GST-tagged PTP1B catalytic domain assessed as rate of DiFMUP hydrolysis by lineweaver-burk plot analysis.
Another series is filed under the species Homo sapiens. As to the kind of experiment: Inhibition of human GST-tagged PRL2 A/S active mutant assessed as DiFMUP hydrolysis at 10 uM by fluorometric kinetic-based assay.
Series [6] deals with T3, Dual specificity protein phosphatase 22 (Homo sapiens) (UniProt Q9NRW4).
T3 sequence (whole entry): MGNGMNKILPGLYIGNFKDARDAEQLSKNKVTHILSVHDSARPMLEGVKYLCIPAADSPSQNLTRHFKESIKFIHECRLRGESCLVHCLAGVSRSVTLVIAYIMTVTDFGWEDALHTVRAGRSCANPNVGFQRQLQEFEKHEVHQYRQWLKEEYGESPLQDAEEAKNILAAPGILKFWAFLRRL
As to the kind of experiment: Inhibition of human GST-tagged full length MKPX assessed as DiFMUP hydrolysis at 10 uM by fluorometric kinetic-based assay.

The target of series [7] is Receptor-type tyrosine-protein phosphatase F (Homo sapiens) (UniProt P10586). As to the kind of experiment: Inhibition of human GST-tagged PTP-LAR D1D2 domain assessed as DiFMUP hydrolysis at 10 uM by fluorometric kinetic-based assay.
Series [8] deals with T4, Receptor-type tyrosine-protein phosphatase S (Homo sapiens, UniProt Q13332). As to the kind of experiment: Inhibition of human GST-tagged PTP-sigma D1D2 domain assessed as DiFMUP hydrolysis at 10 uM by fluorometric kinetic-based assay.
Series [9] deals with T4, Receptor-type tyrosine-protein phosphatase S. As to the kind of experiment: Inhibition of human GST-tagged PTP-sigma D1D2 domain assessed as DiFMUP hydrolysis by fluorometric kinetic-based assay.
Series [10] can be described thus: Inhibition of human GST-tagged PRL2 A/S active mutant assessed as DiFMUP hydrolysis by fluorometric kinetic-based assay.
Series [11] deals with T5, Tyrosine-protein phosphatase non-receptor type 1 (Homo sapiens) (UniProt P18031).
T5 sequence (whole entry): T2 sequence (P18031 whole entry)
As to the kind of experiment: Inhibition of human GST-tagged PTP1B catalytic domain assessed as DiFMUP hydrolysis at 10 uM by fluorometric kinetic-based assay.

In series [12] the target is T2, Tyrosine-protein phosphatase non-receptor type 1. As to the kind of experiment: Inhibition of human GST-tagged PTP1B catalytic domain assessed as DiFMUP hydrolysis by fluorometric kinetic-based assay.
For series [13], the target named is T6, Dual specificity protein phosphatase 22 (Homo sapiens, UniProt Q9NRW4).
T6 sequence (Q9NRW4 whole entry): T3 sequence (whole entry)
As to the kind of experiment: Inhibition of human GST-tagged full length MKPX assessed as DiFMUP hydrolysis by fluorometric kinetic-based assay.

Another series concerns the target T7, Papain (Carica papaya, UniProt P00784).
T7 sequence (P00784 whole entry): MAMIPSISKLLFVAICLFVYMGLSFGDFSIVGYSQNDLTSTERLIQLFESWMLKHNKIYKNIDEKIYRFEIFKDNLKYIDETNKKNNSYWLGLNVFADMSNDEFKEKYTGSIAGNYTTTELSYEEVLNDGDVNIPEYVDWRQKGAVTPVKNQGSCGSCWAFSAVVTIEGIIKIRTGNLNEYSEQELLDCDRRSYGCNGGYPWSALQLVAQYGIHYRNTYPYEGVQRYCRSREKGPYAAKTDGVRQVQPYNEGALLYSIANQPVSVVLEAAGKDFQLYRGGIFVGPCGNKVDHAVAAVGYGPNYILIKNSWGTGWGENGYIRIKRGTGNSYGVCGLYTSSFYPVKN
As to the kind of experiment: Inhibition of papaya papain assessed as Z-Phe-Arg-pNA hydrolysis by fluorometric kinetic-based assay.

Another series concerns the target T8, Papain (Carica papaya) (UniProt P00784).
T8 sequence (whole entry): T7 sequence (P00784 whole entry)
As to the kind of experiment: Inhibition of papaya papain assessed as Z-Phe-Arg-pNA hydrolysis at 10 uM by fluorometric kinetic-based assay.

For series [14], the system named is CHO. As to the kind of experiment: Cytotoxicity against Chinese hamster CHO cells overexpressing IR assessed as cell proliferation rate at 0.4 to 10 uM by xCELLigence system. It counts as cell-based, Cricetulus griseus.
The target in series [15] is T1, Tyrosine-protein phosphatase non-receptor type 2. As to the kind of experiment: Inhibition of human GST-tagged TC-PTP catalytic domain assessed as DiFMUP hydrolysis by fluorometric kinetic-based assay.
In series [16] the target is Receptor-type tyrosine-protein phosphatase F (Homo sapiens) (UniProt P10586). As to the kind of experiment: Inhibition of human GST-tagged PTP-LAR D1D2 domain assessed as DiFMUP hydrolysis by fluorometric kinetic-based assay.
In series [17] the target is T9, Tyrosine-protein phosphatase non-receptor type 2 (Homo sapiens) (UniProt P17706).
T9 sequence (whole entry): T1 sequence (P17706 whole entry)
As to the kind of experiment: Inhibition of human GST-tagged TC-PTP catalytic domain assessed as DiFMUP hydrolysis at 10 uM by fluorometric kinetic-based assay.

In series [18] the test system is CHO. As to the kind of experiment: Cytotoxicity against Chinese hamster CHO cells overexpressing IR assessed as cell proliferation rate at 50 uM by xCELLigence system. It counts as cell-based, Cricetulus griseus.
Series [19] deals with T5, Tyrosine-protein phosphatase non-receptor type 1 (Homo sapiens). As to the kind of experiment: Mixed inhibition of human GST-tagged PTP1B catalytic domain assessed as rate of DiFMUP hydrolysis by lineweaver-burk plot analysis.

T4 sequence (Q13332 whole entry, the tested form may be a part): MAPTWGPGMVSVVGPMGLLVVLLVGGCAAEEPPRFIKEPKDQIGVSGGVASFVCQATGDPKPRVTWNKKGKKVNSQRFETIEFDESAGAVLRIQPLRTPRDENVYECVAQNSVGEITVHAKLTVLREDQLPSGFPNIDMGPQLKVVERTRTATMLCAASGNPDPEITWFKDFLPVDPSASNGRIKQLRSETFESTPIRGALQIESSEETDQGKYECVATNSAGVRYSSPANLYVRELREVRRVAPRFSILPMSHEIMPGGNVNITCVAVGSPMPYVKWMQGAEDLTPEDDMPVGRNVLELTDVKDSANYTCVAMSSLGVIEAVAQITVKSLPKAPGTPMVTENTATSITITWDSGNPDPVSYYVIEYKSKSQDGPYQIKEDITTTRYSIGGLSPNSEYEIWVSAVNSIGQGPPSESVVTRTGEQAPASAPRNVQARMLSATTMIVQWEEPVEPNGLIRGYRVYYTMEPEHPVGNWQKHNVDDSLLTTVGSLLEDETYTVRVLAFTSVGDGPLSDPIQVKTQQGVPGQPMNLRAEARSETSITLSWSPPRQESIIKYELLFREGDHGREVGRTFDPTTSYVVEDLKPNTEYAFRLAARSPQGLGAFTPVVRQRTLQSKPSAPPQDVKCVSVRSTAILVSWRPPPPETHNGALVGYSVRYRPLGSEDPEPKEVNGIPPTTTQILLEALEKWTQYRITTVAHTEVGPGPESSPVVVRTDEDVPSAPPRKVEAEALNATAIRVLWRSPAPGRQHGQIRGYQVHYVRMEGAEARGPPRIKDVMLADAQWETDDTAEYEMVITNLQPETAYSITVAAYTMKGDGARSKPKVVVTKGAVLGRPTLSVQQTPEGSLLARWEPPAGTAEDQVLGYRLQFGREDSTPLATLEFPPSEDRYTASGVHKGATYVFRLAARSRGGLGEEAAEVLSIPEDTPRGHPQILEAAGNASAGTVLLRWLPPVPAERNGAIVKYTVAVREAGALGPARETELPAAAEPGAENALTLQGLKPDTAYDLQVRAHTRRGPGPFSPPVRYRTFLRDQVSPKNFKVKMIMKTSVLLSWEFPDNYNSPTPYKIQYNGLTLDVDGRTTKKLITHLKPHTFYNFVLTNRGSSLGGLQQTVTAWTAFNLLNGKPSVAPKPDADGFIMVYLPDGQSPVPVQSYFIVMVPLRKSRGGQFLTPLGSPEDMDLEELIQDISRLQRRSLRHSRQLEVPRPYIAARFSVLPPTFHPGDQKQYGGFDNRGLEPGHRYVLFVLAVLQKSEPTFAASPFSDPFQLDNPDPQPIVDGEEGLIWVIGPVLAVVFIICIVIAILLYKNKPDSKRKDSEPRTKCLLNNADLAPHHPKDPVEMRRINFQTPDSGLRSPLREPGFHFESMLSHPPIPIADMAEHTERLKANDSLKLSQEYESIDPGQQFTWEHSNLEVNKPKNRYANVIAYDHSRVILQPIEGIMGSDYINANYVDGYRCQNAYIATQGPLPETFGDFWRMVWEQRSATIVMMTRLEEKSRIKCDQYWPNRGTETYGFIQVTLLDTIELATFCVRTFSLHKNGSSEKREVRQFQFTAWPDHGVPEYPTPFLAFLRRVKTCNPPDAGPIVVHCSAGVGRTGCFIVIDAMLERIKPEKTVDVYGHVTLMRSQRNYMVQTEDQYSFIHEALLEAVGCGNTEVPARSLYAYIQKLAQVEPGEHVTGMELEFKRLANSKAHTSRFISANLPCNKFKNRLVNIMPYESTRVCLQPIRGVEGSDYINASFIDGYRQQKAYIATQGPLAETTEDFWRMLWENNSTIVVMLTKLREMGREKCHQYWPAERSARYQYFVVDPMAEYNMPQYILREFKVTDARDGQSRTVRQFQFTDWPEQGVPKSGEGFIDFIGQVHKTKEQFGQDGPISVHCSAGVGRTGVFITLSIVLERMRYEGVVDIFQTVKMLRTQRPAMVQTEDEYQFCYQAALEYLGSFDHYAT
Receptor-type tyrosine-protein phosphatase F (Homo sapiens), sequence (P10586 whole entry, the tested form may be a part): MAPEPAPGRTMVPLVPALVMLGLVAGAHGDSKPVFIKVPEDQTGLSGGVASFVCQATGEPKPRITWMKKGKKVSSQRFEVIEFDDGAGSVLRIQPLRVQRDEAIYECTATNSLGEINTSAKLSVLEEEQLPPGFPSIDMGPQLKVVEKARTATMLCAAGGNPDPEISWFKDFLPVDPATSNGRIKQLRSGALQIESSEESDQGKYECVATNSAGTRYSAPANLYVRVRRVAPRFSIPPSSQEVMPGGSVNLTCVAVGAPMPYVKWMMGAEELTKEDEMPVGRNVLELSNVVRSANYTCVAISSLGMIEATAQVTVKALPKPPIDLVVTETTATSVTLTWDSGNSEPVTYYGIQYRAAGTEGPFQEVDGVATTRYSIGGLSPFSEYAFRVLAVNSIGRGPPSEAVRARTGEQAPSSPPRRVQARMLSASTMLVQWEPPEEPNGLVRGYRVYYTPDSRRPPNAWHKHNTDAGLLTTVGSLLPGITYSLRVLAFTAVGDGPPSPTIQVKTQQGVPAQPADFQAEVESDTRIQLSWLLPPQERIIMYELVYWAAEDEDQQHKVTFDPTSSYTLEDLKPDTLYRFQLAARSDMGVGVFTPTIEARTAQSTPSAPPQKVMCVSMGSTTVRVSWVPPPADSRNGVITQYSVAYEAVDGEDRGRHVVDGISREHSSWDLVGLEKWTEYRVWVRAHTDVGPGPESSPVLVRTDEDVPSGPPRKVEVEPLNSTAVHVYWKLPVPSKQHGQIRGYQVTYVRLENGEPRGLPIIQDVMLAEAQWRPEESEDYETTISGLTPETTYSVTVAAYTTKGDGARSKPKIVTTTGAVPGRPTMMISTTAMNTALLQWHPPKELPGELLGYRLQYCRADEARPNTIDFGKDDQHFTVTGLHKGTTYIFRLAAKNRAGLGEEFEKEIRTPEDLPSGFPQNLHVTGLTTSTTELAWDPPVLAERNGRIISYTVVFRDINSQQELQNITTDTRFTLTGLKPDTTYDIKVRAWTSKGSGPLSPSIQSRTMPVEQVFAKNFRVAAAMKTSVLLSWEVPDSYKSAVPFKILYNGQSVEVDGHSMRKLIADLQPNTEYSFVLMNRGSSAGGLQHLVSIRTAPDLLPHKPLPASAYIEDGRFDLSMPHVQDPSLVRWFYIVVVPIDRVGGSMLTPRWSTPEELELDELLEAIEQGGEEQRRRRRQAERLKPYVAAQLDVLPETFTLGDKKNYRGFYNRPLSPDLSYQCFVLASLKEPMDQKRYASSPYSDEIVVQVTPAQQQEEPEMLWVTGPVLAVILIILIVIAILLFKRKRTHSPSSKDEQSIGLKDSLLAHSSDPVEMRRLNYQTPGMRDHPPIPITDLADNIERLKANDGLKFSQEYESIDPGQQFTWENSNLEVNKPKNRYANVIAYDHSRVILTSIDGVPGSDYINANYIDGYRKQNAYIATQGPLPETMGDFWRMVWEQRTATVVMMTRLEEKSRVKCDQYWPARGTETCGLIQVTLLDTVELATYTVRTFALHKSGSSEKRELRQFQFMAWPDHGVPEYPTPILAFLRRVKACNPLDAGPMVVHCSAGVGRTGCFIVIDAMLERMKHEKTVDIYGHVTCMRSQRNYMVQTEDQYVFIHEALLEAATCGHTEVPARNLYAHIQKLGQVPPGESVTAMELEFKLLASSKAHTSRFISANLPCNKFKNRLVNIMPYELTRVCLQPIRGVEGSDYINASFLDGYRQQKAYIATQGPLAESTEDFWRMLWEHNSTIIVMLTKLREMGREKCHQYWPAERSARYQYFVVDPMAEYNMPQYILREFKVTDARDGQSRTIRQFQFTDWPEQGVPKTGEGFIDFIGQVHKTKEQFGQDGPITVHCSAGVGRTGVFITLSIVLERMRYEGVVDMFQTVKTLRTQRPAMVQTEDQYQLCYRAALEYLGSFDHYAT

Broadly, the IC50 is the concentration that inhibits the measured activity by half. On to `O=C(Cn1cc(-c2c(-c3ccccc3)oc3cc(O)c(C(=O)O)cc23)nn1)Nc1ccc(N2CCOCC2)cc1`, for which the values for the half-inhibitory concentration (IC50) in series [1] and in series [2] were 22 µM and 19 µM, respectively.

A word on the inhibition: it is the drop in the measured response relative to a control, in per cent. For orientation: Ki means a dissociation constant, usually derived from enzyme kinetics or from competition with a known ligand. As to `CN(C)c1cccc2c(S(=O)(=O)N(C)CC(=O)N(Cc3ccc(C4CCCCC4)cc3)c3ccc(C(=O)O)c(O)c3)cccc12`, the Activity result is “Toxic” in the series with CHO [3] and “Non-toxic” with CHO [14]. Moreover, the inhibition result is “Dose-dependent effect” in the series on CHO [4], greater than 80% in series [8], greater than 80% in [11] and greater than 80% in series [17]. For the same compound, the Ki in [5] came to 4 µM. In addition, the inhibition result (in the series filed under Homo sapiens; in series [6]; in series [7]; on Papain (Carica papaya); in series [16]) was “inactive” each time. For the same compound, the IC50 in series [9] is 3.6 µM; in series [10] it was greater than 50 µM; in series [12] it was 4.9 µM; in [13] it was greater than 10 µM; at Papain, greater than 10 µM; in series [15] it was 5.1 µM.

Take `CN(CC(=O)N(Cc1ccc(C2CCCCC2)cc1)c1ccc(C(=O)O)c(O)c1)S(=O)(=O)c1cccc2ccccc12`: the results for the Activity result in the series on CHO [18] and in the series on CHO [14] were “Toxic” and “Non-toxic”, respectively. For the same compound, the inhibition result in the series with CHO [4] is “Dose-dependent effect”; in [8], greater than 80%; in series [11], greater than 80%; in series [17], greater than 80%. Further, the Ki in [5] was determined as 2.1 µM. The inhibition entry (in the series listed under Homo sapiens; in [6]; in [7]; on Papain (Carica papaya); in series [16]) was “inactive” throughout. Moreover, the IC50 in series [9] was 5.2 µM; in [10] it was greater than 50 µM; in series [12], 5.2 µM; in series [13], greater than 10 µM; on Papain, greater than 10 µM; in [15] it was 3.9 µM.

Consider `CN(CC(=O)N(Cc1ccc(C2CCCCC2)cc1)c1ccc(C(=O)O)c(O)c1)S(=O)(=O)c1cccc2cccnc12`, for which the Activity entry in the series with CHO [3] is recorded as “Toxic”; in the series with CHO [14] it was “Non-toxic”. In addition, the inhibition result in the series with CHO [4] is “Dose-dependent effect”; in [8], greater than 80%; in series [11], greater than 80%; in series [17], greater than 80%. Besides, the inhibition result (in the series filed under Homo sapiens; in [6]; in series [7]; on Papain (Carica papaya); in series [16]) was “inactive” in each case. Moreover, the inhibition entry in series [19] is “Active”. Further, the IC50 is 4.3 µM in [9]; greater than 50 µM in series [10]; 6.2 µM in [12]; greater than 10 µM in series [13]; greater than 10 µM on Papain; 4.8 µM in [15].

Regarding `COC(=O)c1cccc(-c2ccc(-c3ccc(CN(C(=O)CN(C)S(=O)(=O)c4ccc(C)cc4)c4ccc(C(=O)O)c(O)c4)cc3)cc2)c1`, the inhibition result (in the series filed under Homo sapiens; in [6]; in series [7]; at Papain (Carica papaya)) was “inactive” each time. Moreover, the inhibition in [8], in series [11] and in series [17] was greater than 80% each time. The 50% inhibitory concentration (IC50) in series [9] was 6.3 µM; in [10], greater than 50 µM; in series [12], 4.8 µM; in series [13] it was greater than 10 µM; on Papain, greater than 10 µM; in [15], 5.6 µM.

For the compound `Cc1ccc(S(=O)(=O)N(C)CC(=O)N(Cc2ccc(-c3ccc(-c4cccc(C(N)=O)c4)cc3)cc2)c2ccc(C(=O)O)c(O)c2)cc1`, the inhibition entry (in the series filed under Homo sapiens; in [6]; in [7]; on Papain (Carica papaya)) was “inactive” throughout. For the same compound, the inhibition in series [8], in [11] and in [17] was greater than 80% in each case. The concentration for half-maximal inhibition (IC50) in series [9] was 4.6 µM; in [10] it was greater than 50 µM; in series [12], 4.6 µM; in series [13], greater than 10 µM; on Papain, greater than 10 µM; in series [15], 4.4 µM.

As to `Cc1ccc(S(=O)(=O)N(C)CC(=O)N(Cc2ccc(-c3ccc(-c4cccc(C#N)c4)cc3)cc2)c2ccc(C(=O)O)c(O)c2)cc1`, the inhibition entry (in the series listed under Homo sapiens; in [6]; in series [7]; at Papain (Carica papaya)) was “inactive” in each case. In addition, the inhibition in series [8], in [11] and in series [17] was greater than 80% throughout. Also, the IC50 in series [9] is 6.1 µM; in series [10] it was greater than 50 µM; in series [12], 5 µM; in [13] it was greater than 10 µM; on Papain, greater than 10 µM; in series [15], 5.1 µM.
